# Like-named read-outs stand apart in the source and are kept apart here.
# Assays:
# [1] = system: mutant EGFR NSCLC cells & EGFR TKI-resistant derivatives; assay: Viable cell counts of mutant EGFR NSCLC cells and EGFR TKI-resistant derivatives; type: cell-based; conditions: H1975, H1650 and AZD-9291 or erlotinib resistant derivatives
# Experimental: The indicated cell lines are shown in FIG. 15A (H1975), FIG. 15B (H1650), FIG. 15C (H1975^AZD-R), and FIG. 15D (H1650^AZD-R).
# The indicated cell lines are shown in FIG. 16A (H1975), FIG. 16B (H1650), FIG. 16C (H4011), FIG. 16D (H1975^AZD-R), FIG. 16E (H1650^AZD-R), and FIG. 16F (H1650^ERL-R).
# NSCLC cells were cultured in the presence of the indicated compound(s) or an equivalent volume of vehicle (DMSO) only and the numbers of viable cells were counted at the indicated intervals using the Incucyte ZOOM live cell imaging system.
# [2] = system: mutant EGFR NSCLC cell lines; assay: Cell counts of mutant EGFR NSCLC cell lines; type: cell-based; conditions: mutant EGFR NSCLC cell lines (H1650, H4006, PC9, HCC827)
# Experimental: (§1) NSCLC and normal bronchial epithelial (BEAS2B) cell lines were cultured with CO-1686 for 60 hours and confluency was determined (BEAS2B) or cells were counted (NSCLC cell lines) and normalized to vehicle-controls.
# For treatment with CO-1686, the cell lines are shown in FIG. 9A (H1650), FIG. 9B (H4006), and FIG. 9C (PC9). For treatment with AZD-9291, the cell lines are shown in FIG. 9D (H1650) and FIG. 9E (HCC827). The indicated NSCLC cell lines were treated with CO-1686, AZD-9291, and/or MRX-2843 and cells were counted every 2 hours.
# [3] = system: A549 cells; assay: Expansion of A549 cells in culture, Incucyte ZOOM live cell imaging; type: cell-based; conditions: for reduction of A549 cell number: agents alone or together at the same concentrations
# [4] = system: mutant forms of EGFR including T790M; conditions: Walter et al. 2013; cited from earlier work
# [5] = system: A549 shMERTK cells; assay: Confluence of A549 shMERTK cells, Incucyte ZOOM live cell imaging; type: cell-based; conditions: A549 shMERTK cell line, CO-1686 vs vehicle
# Excerpt: FIGS. 5A and 5B show inhibition of MERTK using shRNA sensitized A549 cells to CO-1686. FIG. 5A is an immunoblot showing decreased MERTK expression mediated by shRNA in A549 cells. […] FIG. 6A is an immunoblot showing decreased EGFR expression mediated by siRNA in A549 and […] cells.
# [6] = system: wild-type EGFR NSCLC cell lines; assay: Cell counts of wild-type EGFR NSCLC cell lines after 60 hours; type: cell-based
# Experimental: as §1
# The indicated NSCLC cell lines were treated with CO-1686 and/or MRX-2843 for 60 hours and cells were counted and normalized to vehicle controls.
# [7] = system: wild-type EGFR NSCLC cell lines; conditions: as reported by Walter; cited from earlier work
# [8] = system: mutant EGFR NSCLC cell lines; conditions: EGFR mutation incl. T790M (H1975); 1 μM; as reported by Walter; cited from earlier work
compound,measurement,setting,value
Clc1ccc(C2(c3ccc(-c4cn[nH]c4)cc3)CCNCC2)cc1 [AT7867],anti-tumor activity in combination with MRX-2843,[1],synergistic anti-tumor activity
"C=CC(=O)Nc1cc(Nc2nccc(-c3cn(C)c4ccccc34)n2)c(OC)cc1N(C)CCN(C)C [AZD-9291, Osimertinib]",interaction with MRX-2843,[2],synergize
same,interaction with MRX-2843,"[3]; A549 cells, combined with MRX-2843",synergized
"C=CC(=O)Nc1cccc(Nc2nc(Nc3ccc(N4CCN(C(C)=O)CC4)cc3OC)ncc2C(F)(F)F)c1 [CO-1686, Rociletinib]",IC50,[4],0.021 µM
same,reduction in cell number,[5],23.4±0.22%
same,interaction with MRX-2843,[6]; broad spectrum of wild-type EGFR NSCLC cell lines,synergizes
same,sensitivity of cell lines to CO-1686,[6]; wild-type EGFR cell lines compared to mutant EGFR lines,resistant
same,sensitivity of cell lines to CO-1686,[7],resistant
same,sensitivity of cell lines to CO-1686,[8],clear sensitivity
same,interaction with MRX-2843,[2],synergize
same,reduction of A549 cell number,[3]; A549 cells,20.9±5.7%
same,reduction in cell number,"[3]; wild-type A549 cells, CO-1686 vs vehicle, confluence",9.9±2.89%
CN1CCN(Cc2ccc(-c3cn([C@H]4CC[C@H](O)CC4)c4nc(NCCC5CC5)ncc34)cc2)CC1 [MRX-2843],reduction of A549 cell number,[3]; A549 cells,13.2±4.1%
Nc1nc(Nc2ccc3c(c2)CCC(N2CCCC2)CC3)nn1-c1cc2c(nn1)-c1ccccc1CCC2 (stereo not drawn) [R428],interaction with CO-1686,"[3]; A549 cells, combined with CO-1686",synergized
CN1CCC(CNc2ccc3ncc(-c4cccc(OC(F)(F)F)c4)n3n2)CC1 [SGI-1776],anti-tumor activity in combination with MRX-2843,[1],synergistic anti-tumor activity

# — patent US10709708B2, “Method of treating cancer with a combination of MER tyrosine kinase inhibitor and an epidermal growth factor receptor (EGFR) inhibitor” (Emory University, priority 2016, dated 2020)
